In patent publication US8802597B2, “Herbicidal pyrimidines” (E I du Pont de Nemours and Company, priority 2003, dated 2014):

Legend:
Experiment in all cases: Test A pre/postemergence
Assay type in all cases: in vivo
[1] = system: giant foxtail (Setaria faberi)
How it was run: (§1)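 Soil: loam blended with sand. Formulation: non-phytotoxic solvent mixture with surfactant. Timing: preemergence soil spray plus concurrent postemergence spray (plants 2–10 cm, 1–2 leaves). Readout: visual injury versus untreated controls at ~10 days, 0–100.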

[2] = system: redroot pigweed (Amaranthus retroflexus)
How it was run: as §1

[3] = system: barnyardgrass (Echinochloa crus-galli)
How it was run: as §1

[4] = system: morningglory (Ipomoea spp.)
How it was run: as §1

[5] = system: crabgrass (Digitaria sanguinalis)
How it was run: as §1

[6] = system: velvetleaf (Abutilon theophrasti)
How it was run: as §1

[7] = Postemergence, 125 g ai/ha, 0 to 100 scale (0 no effect, 100 complete control)
[8] = Postemergence, 500 g ai/ha, 0 to 100 scale (0 no effect, 100 complete control)
[9] = Preemergence, 125 g ai/ha, 0 to 100 scale where 0 is no effect and 100 is complete control, approximately ten days
[10] = Preemergence, 500 g ai/ha, 0 to 100 scale where 0 is no effect and 100 is complete control, approximately ten days

SMILES	Plant response rating, Foxtail, Giant [1, 7]	Plant response rating, Foxtail, Giant [1, 8]	Plant response rating, Foxtail, Giant [1, 9]	Plant response rating, Foxtail, Giant [1, 10]	Plant response rating, Pigweed [2, 7]	Plant response rating, Pigweed [2, 8]	Plant response rating, Pigweed [2, 9]	Plant response rating, Pigweed [2, 10]	Plant response rating, Barnyardgrass [3, 7]	Plant response rating, Barnyardgrass [3, 8]	Plant response rating, Barnyardgrass [3, 9]	Plant response rating, Barnyardgrass [3, 10]	Plant response rating, Morningglory [4, 7]	Plant response rating, Morningglory [4, 8]	Plant response rating, Morningglory [4, 9]	Plant response rating, Morningglory [4, 10]	Plant response rating, Crabgrass [5, 7]	Plant response rating, Crabgrass [5, 8]	Plant response rating, Crabgrass [5, 9]	Plant response rating, Crabgrass [5, 10]	further results
CCOC(=O)c1nc(-c2cc(Br)cc(OC)c2)nc(N)c1Cl [Compound 101]	0	0	0	0	0	5	0	0	0	0	0	0	0	0	0	0	0	0	0	0	Plant response rating, Velvetleaf [6, 7]: 0; Plant response rating, Velvetleaf [6, 8]: 15; Plant response rating, Velvetleaf [6, 9]: 0; Plant response rating, Velvetleaf [6, 10]: 0
COC(=O)COc1nc(C2CC2)nc(N)c1Cl [Compound 112]	0	0	0	0	20	40	10	30	0	0	0	10	55	50	0	10	0	0	0	10	Plant response rating, Velvetleaf [6, 7]: 20; Plant response rating, Velvetleaf [6, 8]: 35; Plant response rating, Velvetleaf [6, 9]: 0; Plant response rating, Velvetleaf [6, 10]: 10
CCCOC(=O)c1nc(-c2ccc(Cl)cc2)nc(N)c1Cl [Compound 105]	10	10	0	0	65	90	0	0	10	25	0	0	50	70	0	0	20	45	0	0	Plant response rating, Velvetleaf [6, 7]: 85; Plant response rating, Velvetleaf [6, 8]: 95; Plant response rating, Velvetleaf [6, 9]: 0; Plant response rating, Velvetleaf [6, 10]: 0
CCOC(=O)Cc1nc(-c2ccc(Cl)cc2)nc(N)c1Cl [Compound 120]	0	0	0	0	20	35	0	0	10	40	5	15	25	55	0	0	0	5	0	0	Plant response rating, Velvetleaf [6, 7]: 50; Plant response rating, Velvetleaf [6, 8]: 65; Plant response rating, Velvetleaf [6, 9]: 0; Plant response rating, Velvetleaf [6, 10]: 0
Nc1nc(C2CC2)nc(C(=O)OCC2COC(=O)O2)c1Cl (stereo not drawn) [Compound 149]	60	80	35	90	75	90	70	90	65	90	70	85	80	95	85	100	25	75	20	75	Plant response rating, Velvetleaf [6, 7]: 85; Plant response rating, Velvetleaf [6, 8]: 100; Plant response rating, Velvetleaf [6, 9]: 70; Plant response rating, Velvetleaf [6, 10]: 85
COCCOCCOC(=O)c1nc(C2CC2)nc(N)c1Cl [Compound 141]	40	85	5	85	90	100	80	85	80	90	35	75	90	90	85	95	25	80	60	85	Plant response rating, Velvetleaf [6, 7]: 85; Plant response rating, Velvetleaf [6, 8]: 100; Plant response rating, Velvetleaf [6, 9]: 80; Plant response rating, Velvetleaf [6, 10]: 85
Nc1nc(C2CC2)nc(C(=O)OCC2CCCO2)c1Cl (stereo not drawn) [Compound 150]	80	85	50	80	90	90	70	95	80	95	65	80	80	100	90	100	65	80	50	80	Plant response rating, Velvetleaf [6, 7]: 90; Plant response rating, Velvetleaf [6, 8]: 100; Plant response rating, Velvetleaf [6, 9]: 75; Plant response rating, Velvetleaf [6, 10]: 95
